The record followed here is patent publication US20260226006A1, “INDOLE COMPOUND, PREPARATION METHOD THEREFOR AND USE THEREOF” (SUZHOU MERNA THERAPEUTICS CO. LTD, priority 2023, published 2026).

Series [1] concerns HaCat cells. Description: m6A methylation level of drug-treated HaCat keratinocytes by nanopore sequencing (Example 14). The format is cell-based, human. The note with it: 50 nM drug, 24 hours. As to the method:
1*10^8 HaCat cells were seeded in culture dishes, into which 50 nM drugs (including sorafenib, capecitabine, docetaxel, and osimertinib) were added, respectively. The cells were cultured in an incubator containing 5% CO2 at 37° C. for 24 hours and washed with PBS after culture media were removed. Centrifugation was performed, the supernatant was discarded, and then, 400 μL of an RLT cell lysis buffer (QIAGEN, Cat. #79216) was added. A portion of samples were selected, into which 400 μL of 70% ethanol was added. The mixture was evenly stirred and then transferred to an RNeasy mini column, and RNA was extracted using an RNeasy mini kit (QIAGEN, Cat. #74104). 2 μL of an RNA sample was selected and dissolved in 98 μL of a 10 mM Tris-HCl buffer solution, and the absorbance at 260 nm was measured using a Nanodrop (Thermo Fisher Scientific) to determine the RNA concentration.
40 μg of an RNA sample was selected for enrichment of mRNA (PolyA+RNA) using an NEBNext Poly(A) mRNA magnetic isolation module (NEB, Cat. #E7490), and then, a 3′ end of the above enriched mRNA (PolyA+RNA) molecule was ligated with reverse transcription adapter RTA using a direct RNA sequencing kit (Oxford Nanopore Technologies, Cat. #SQK-RNA002). A reverse transcription reaction was performed with the mRNA (PolyA+RNA) molecule as a template to synthesize a complementary strand, a terminal end of the reverse transcription adapter RTA was ligated with a sequencing adapter (RNA adapter) to form a final sequencing library, and quantitative detection was performed using a Qubit™ dsDNA HS assay kit (Invitrogen, Cat. #LOT2133187).
After quality inspection of the library, the prepared sequencing library was loaded onto a PromethION flow cell chip (Oxford Nanopore Technologies, Cat. #FLO-MIN106D), and placed in a PromethION sequencer (Oxford Nanopore Technologies) for sequencing by selecting a matched sequencing mode. Basecalling was performed on sequencing data through guppy, and m6A methylation analysis was performed on original fast5 data.

Series [2] deals with HaCat cells. The series can be described thus: m6A methylation level of human HaCat keratinocytes, EpiQuik m6A RNA methylation quantification kit (Example 20). The format is cell-based. The note with it: 50 nM drug alone; for fold induction at 0.05 µM: Homo sapiens, HaCat cells, 24 hours, read-out: m6A fold change relative to control group 1. Here is the method: HaCat cells were cultured in a DMEM culture medium containing 10% fetal bovine serum, 100 U/mL penicillin, and 100 μg/mL streptomycin. Culture dishes were placed in an incubator containing 5% CO2 for culture at 37° C. for 24 hours. An equal volume of DMSO was added in control group 1, 50 nM sorafenib, capecitabine, docetaxel, and osimertinib were respectively added in control groups A, B, C, and D, and 400 nM test compounds or nicotinamide were respectively added in sample groups A1-17, B1-17, C1-17, and D1-17 after the addition of 50 nM corresponding compounds. The cells were continuously cultured for 24 hours, washed with PBS, and then collected by high-speed centrifugation. Total RNA was extracted using a Trizol reagent (Sigma Aldrich), and RNA m6A methylation of a sample was quantitatively detected using an EpiQuik m6A RNA methylation quantification kit. The concentrations of positive control samples for a standard curve were 0.01 ng/μl, 0.02 ng/μl, 0.05 ng/μl, 0.1 ng/μl, 0.2 ng/μl, and 0.5 ng/μl. The absorbance at 450 nm was read using a microplate reader (Tecan GENios). A quantitative calculation formula for m6A is as follows:
m6A (ng)=(absorbance of sample well−absorbance of background well)/slope of standard curve m6A (%)=m6A (ng)/RNA amount of sample (ng)*100%.

The test system of series [3] is skin of hind limb toes of mice. Description: Chemotherapeutic drug-induced mouse models with hand-foot syndrome (Example 23). The settings on record: for degree of swelling of hind limb toes / epidermal layer and stratum corneum in skin tissues of hind limb toes (pathological staining): modeling drug oral for 14 days; for skin appearance of hind limb toes: modeling for 14 days, capecitabine 200 mg/kg or docetaxel 25 mg/kg oral. The series is classed as in vivo, ICR mice. The text has this: After adaptive feeding for 7 days, SPF-grade ICR mice (male, 5-6 weeks old, with a body weight of approximately 35 g) were randomly divided into groups, including a blank control group (6 mice), a capecitabine modeling group (6 mice), a docetaxel modeling group (6 mice), a capecitabine+compound 2b group (6 mice), a docetaxel+compound 2b group (6 mice), a capecitabine+nicotinamide group (6 mice), and a docetaxel+nicotinamide group (6 mice). The groups were respectively administered corresponding modeling drugs by oral gavage (capecitabine at 200 mg/kg and docetaxel at 25 mg/kg) once daily, and the blank control group was administered an equivalent volume of normal saline. After administration with the chemotherapeutic drugs for 2 weeks, the compound ointments (at a compound content of 3%) used in Example 22 were respectively applied topically in the groups, or nicotinamide was orally administered (100 mg/kg) once daily continuously for 16 days.
Measurement of the degree of swelling of toes: The degree of swelling of hind limb toes of the mice was measured using a toe swelling tester (KW-7C, Nanjing Calvin Biotechnology Co., Ltd.) before administration with the modeling drugs, after administration with the modeling drugs for 2 weeks, and before sacrifice, respectively. Before measurement, ankle joints of hind paws of the mice were marked at same positions before administration, after administration for 2 weeks, and before sacrifice. During measurement, water was properly located at the same level as the marked positions, and numerical values were recorded after becoming stable.
Pathological staining of skin tissues: Skin tissue samples were selected from hind limb toes of the mice and placed in 4% paraformaldehyde for fixation at room temperature for 4 hours. Then, the tissues were taken out and rinsed with running water for several hours. The samples were subjected to dehydration treatment with 70%, 80%, and 90% ethanol solutions, followed by treatment with a mixed solution of equal amounts of absolute alcohol and xylene for 15 minutes, and then permeabilized twice with a xylene solution for 15 minutes each time until the samples became transparent. The samples were placed in a mixture of half xylene and half paraffin for soaking for 15 minutes, and then, paraffin I and paraffin II were added for wax penetration for one hour, respectively. After embedding with paraffin, the samples were sectioned, baked, dewaxed, and hydrated. Then, the hydrated sections were placed in a hematoxylin solution (ZSGB-BIO, article No. 23041001) for staining for 3 minutes, and a differentiation solution of hydrochloric acid in ethanol was added for differentiation for 15 seconds. After rinsing with water, a Scott bluing solution (Servicebio, article No. 20230801) was added for bluing for 15 seconds. After rinsing with running water, the sections were stained with an eosin solution (Solarbio, article No. 33535) for 3 minutes, rinsed with running water, dehydrated, permeabilized, sealed, and inspected under a microscope.
Immunohistochemical staining: After baking, dewaxing, and hydration, paraffin sections of skin tissues of hind limb toes of the mice were subjected to antigen retrieval using a 0.2 M citric acid buffer solution (containing 1.534 g of citric acid, 3.1 g of sodium citrate, and 100 mL of distilled water, pH 4.7). Endogenous […] was removed using 3% hydrogen peroxide (Shandong Annjet High-Tech Disinfection Technology Co., Ltd., article No. 20290902), and the sections were incubated at room temperature for 10 minutes and then fully rinsed with a PBS buffer solution (containing 8 g of NaCl, 0.2 g of KCl, 1.44 g of Na2HPO4, and 1 M HCl, pH 7.4). The sections were permeabilized with 0.5% Triron-X-100 (AmyJet Scientific, article No. A-CSH436-100 mL), respectively permeabilized with mouse anti-IL-1β and rabbit IL-8 for 10 minutes, and not permeabilized with rabbit anti-IL-6. […]

For series [4], the system named is NAP1L2 mRNA in HaCat cells. The series can be described thus: NAP1L2 mRNA expression in HaCat cells by RT-PCR (Example 16). The series is classed as cell-based, human. The note with it: HaCat keratinocytes, 24 hours. Here is the method: 1*10^8 HaCat cells were seeded in culture dishes, into which a recombinant protein of m6A methylase METTL3 (Abcam, Cat. #ab271611) and a recombinant protein of m6A demethylase FTO (Abcam, Cat. #ab271525) were added, or METTL3 siRNA (sh-METTL3, GeneChem) and FTO siRNA (sh-FTO, GeneChem) were transfected, respectively. The cells were placed in an incubator containing 5% carbon dioxide for culture at 37° C. for 24 hours, washed with PBS, and then collected by high-speed centrifugation. Total RNA was extracted using a Trizol reagent (Sigma Aldrich). 1 μg of RNA was reverse-transcribed into cDNA using a cDNA reverse transcription kit (Transgene Biotech, Cat. #AT311-03). 1.25 μL of a primer (Beyotime, Cat. #QH18721S), 10 μL of an iTag Universal SYBR Green supermix (Bio-Rad, Cat. #172-5125), and an appropriate amount of DEPC ultrapure water were added to formulate 20 μL of a reaction solution to perform an RT-PCR reaction. Upon completion of the reaction, the reaction solution was subjected to agarose gel electrophoresis to determine the mRNA expression amount of NAP1L2.

For series [5], the system named is MMP2 and MMP9 in HaCat keratinocytes. Description: Expression of matrix metalloproteinases in HaCat keratinocytes, RT-PCR and Western blot (Example 17). The settings on record: 24 hours. The series is classed as cell-based, human. Here is the method:
1*10^8 HaCat cells were seeded in culture dishes, into which a human recombinant NAP1L2 protein (Abcam, Cat. #ab117213), sorafenib, capecitabine, docetaxel, and osimertinib were added, or NAP1L2 siRNA (sh-NAP1L2, GeneChem) was transfected, respectively. The cells were placed in an incubator containing 5% carbon dioxide for culture at 37° C. for 24 hours, washed with PBS, and then collected by high-speed centrifugation. An RLT lysis buffer was added to the above collected cells, the mixture was shaken at 4° C. for half an hour and centrifuged to collect the supernatant, and the expression of matrix metalloproteins was measured by Western blot.
Total RNA was extracted from the above collected cells using a Trizol reagent (Sigma Aldrich). 1 μg of RNA was reverse-transcribed into cDNA using a cDNA reverse transcription kit (Transgene Biotech, Cat. #AT311-03). 1.25 μL of a primer (SinoBiological, Cat. #HP100168&HP100367), 10 μL of an iTagUniversal SYBR Green supermix (Bio-Rad, Cat. #172-5125), and an appropriate amount of DEPC ultrapure water were added to formulate 20 μL of a reaction solution to perform an RT-PCR reaction. Upon completion of the reaction, the reaction solution was subjected to agarose gel electrophoresis to determine the mRNA expression amounts of the matrix metalloproteins.

In the case of `CCCCCOC(=O)Nc1nc(=O)n([C@@H]2O[C@H](C)[C@@H](O)[C@H]2O)cc1F` [Capecitabine, capecitabine], the “m6A methylation level of HaCat cells, increase compared with blank control group” value in the series with HaCat cells [1] turned out to be 6.01 times. In the series on HaCat cells [2], the “m6A methylation level of human HaCat keratinocytes” value is given as “significantly increase” and the fold induction at 0.05 µM is 6.7. In series [3] (capecitabine oral for 14 days), the “cytokine IL-8 in skin tissues of hind limb toes (immunohistochemistry)” value was “significantly increased”. In series [3], the “degree of swelling of hind limb toes” value is “swelling of the hind limb toes of the mice is caused”; the “epidermal layer and stratum corneum in skin tissues of hind limb toes (pathological staining)” value is on record as “significantly thickened”; the “skin appearance of hind limb toes” value was “obvious erythema, rhagades, and blisters”.

Turning to `CC(=O)O[C@@]12CO[C@@H]1C[C@H](O)[C@@]1(C)C(=O)[C@H](O)C3=C(C)[C@@H](OC(=O)[C@H](O)[C@@H](NC(=O)OC(C)(C)C)c4ccccc4)C[C@@](O)([C@@H](OC(=O)c4ccccc4)[C@H]21)C3(C)C` [Docetaxel, docetaxel], the “m6A methylation level of HaCat cells, increase compared with blank control group” value with HaCat cells [1] turned out to be 3.97 times. Further, in the series with HaCat cells [2], the “m6A methylation level of human HaCat keratinocytes” value is “significantly increase” and the fold induction at 0.05 µM was found to be 5.6. Moreover, in series [3] (docetaxel oral for 14 days), the “cytokine IL-6 in skin tissues of hind limb toes (immunohistochemistry)” value is on record as “significantly increased”. Besides, in series [3], the “degree of swelling of hind limb toes” value is given as “swelling of the hind limb toes of the mice is caused”; the “epidermal layer and stratum corneum in skin tissues of hind limb toes (pathological staining)” value was “significantly thickened”; the “skin appearance of hind limb toes” value was “obvious erythema, rhagades, and blisters”.

For “m6A demethylase FTO: recombinant protein of m6A demethylase FTO (Abcam, Cat. #ab271525)”, the “mRNA expression amount of NAP1L2” value in series [4] is recorded as “significantly decreased”.

As for “m6A methylase METTL3: recombinant protein of m6A methylase METTL3 (Abcam, Cat. #ab271611)”, the “mRNA expression amount of NAP1L2” value in series [4] is given as “significantly increased”.

B1: recombinant NAP1L2 protein: human recombinant NAP1L2 protein (Abcam, Cat. #ab117213) (protein, UniProt Q9ULW6 1-460, looked up)
Nucleosome assembly protein …: MAESENRKELSESSQEEAGNQIMVEGLGEHLERGEDAAAGLGDDGKCGEEAAAGLGEEGENGEDTAAGSGEDGKKGGDTDEDSEADRPKGLIGYVLDTDFVESLPVKVKYRVLALKKLQTRAANLESKFLREFHDIERKFAEMYQPLLEKRRQIINAIYEPTEEECEYKSDSEDCDDEEMCHEEMYGNEEGMVHEYVDEDDGYEDYYYDYAVEEEEEEEEEDDIEATGEENKEEEDPKGIPDFWLTVLKNVDTLTPLIKKYDEPILKLLTDIKVKLSDPGEPLSFTLEFHFKPNEYFKNELLTKTYVLKSKLAYYDPHPYRGTAIEYSTGCEIDWNEGKNVTLKTIKKKQKHRIWGTIRTVTEDFPKDSFFNFFSPHGITSNGRDGNDDFLLGHNLRTYIIPRSVLFFSGDALESQQEGVVREVNDAIYDKIIYDNWMAAIEEVKACCKNLEALVEDIDR
Take B1: in series [5], the “mRNA and protein expression amounts of matrix metalloproteinases MMP2 and MMP9” value was “significantly increased”.
